Reference: patent publication US6818215B2, “Antibodies to senescent cell-derived inhibiters of DNA synthesis” (priority 1991, dated 2004)

Experiments:
A31 cells = experiment: DNA synthesis in transfected (β-galactosidase positive) cells, radiolabeled nuclei; type: cell-based, murine
Experimental: (§1) The effect of the human SDI-1 on transcription driven by two E2F-responsive promoters was determined. Proliferating A31 cells were transfected with an SDI-1 expression vector in which the SDI-1 cDNA was driven by the strong constitutive cytomegalovirus early promoter (CMV) together with a reporter vector in which the chloramphenicol acetyltransferase (CAT) gene was driven by either the hamster dihydrofolate reductase (DHFR) promoter or the human cdc2 promoter (cdc2-CAT). A31 cells are Balb/c murine 3T3 fibroblasts whose origin and growth properties have been described (Lu, K. et al., Molec. Cell. Biol. 9:3411-3417 (1989); Dimri, G. P et al., J. Biol. Chem. 269:16180-16186 (1994), herein incorporated by reference). Cells were transfected with 2 μg of expression vectors, reporters vectors (for transactivation) and the CMV-β-gal identification/normalization vector using Lipofectamine (Gibco-BRL), as described by Dimri, G. P et al. (J. Biol. Chem. 269:16180-16186 (1994), herein incorporated by reference), The vector backbone was added to the mixture as needed to equalize the amount of transfected DNA. Seventy-two hours later, the cells were lysed and assayed for chloramphenicol acetyl transferase (CAT) and β-galactosidase activity. Both DHFR and cdc2 were expressed by proliferating cells, largely due to E2F-mediated transcription that is dependent on E2F binding sites in the 5′ regulatory regions of these genes (Slansky, J. E. et al., Molec. Cell. Biol. 13:1610-1618 (1993); Dalton, S., EMBO J. 11:1797-1804 (1992)).
These mutants included a naturally occurring SDI-1 variant (p21pm) in which the serine at amino acid 31 was replaced by an arginine. This polymorphism has been detected in approximately 10% of normal human cells thus far examined, and appears to result in a slight reduction in the antiproliferative properties of SDI-1 (Table 17). A SDI-1 expression vector for this allele (CMV-p21pm) was compared with CMV-SDI-1 for ability to inhibit DNA synthesis and E2F-mediated transactivation in proliferating A31 cells. […]

Breast (T-47 D) = experiment: GST-SDI-1 fusion protein, thymidine incorporation; type: cell-based, human
Experimental: (§2) As indicated above, SDI-1 has the capacity to suppress the proliferation of tumor cells. […] In the experiment, 5×10^3 cells were plated overnight at 37° C. (only for adherent cells) and then incubated with the SDI fusion protein. After 48 hours at 37° C., cells were pulsed with thymidine for 24 hours and then harvested. The results of this experiment are shown in Table 8; the thymidine incorporation by untreated cells was expressed as 100%. all determinations were made in quadruplicate.

Glial (U-251) = experiment: GST-SDI-1 fusion protein, thymidine incorporation; type: cell-based, human
Experimental: as §2

Hepatocellular (Hep G2) = experiment: GST-SDI-1 fusion protein, thymidine incorporation; type: cell-based, human
Experimental: as §2

Burkitt Lymphoma (Daudi) = experiment: GST-SDI-1 fusion protein, thymidine incorporation; type: cell-based, human; conditions: 30 μg/ml
Experimental: as §2

human cdc2 promoter = experiment: CAT reporter transcription assay, cdc2-CAT; type: cell-based
Experimental: as §1
The SDI-1 expression vector, CMV-SDI-1, but not the control vector, suppressed CAT activity driven by either the DHFR or cdc2 promoter (Table 16). CMV-SDI-1 was maximally inhibitory at above 2 μg of DNA under the assay conditions used. CAT activity in Table 16 is reported in counts per minute, normalized to the β-galactosidase activity. At this concentration, CMV-SDI-1 inhibited the DHFR promoter, which contains two strong E2F binding sites (Slansky, J. E. et al., Molec. Cell. Biol. 13:1610-1618 (1993)), somewhat more strongly than the cdc2 promoter, which contains a single E2F binding site (Dalton, S., EMBO J. 11:1797-1804 (1992)) (50-70% inhibition vs 40-50% inhibition). This difference in sensitivity is consistent with the finding that the DHFR promoter is somewhat more sensitive than the cdc2 promoter to stimulation by E2F1, a component of E2F (Dimri, G. P et al., J. Biol. Chem. 269:16180-16186 (1994)). At the concentrations used here, CMV-SDI-1 inhibited DHFR-CAT and cdc2-CAT expression to approximately the same extent that it inhibited DNA replication.

cdk2 protein = biological target: T1, cdk2 protein (Homo sapiens, UniProt P24941); experiment: Binding of in vitro translated SDI-1 deletion mutants to purified cdk2, anti-cdk2 immunoprecipitation; conditions: 45 μl translation product, 1 ug cdk2, 4° C.
T1 construct: host or cells: baculovirus expression system
Experimental: To determine whether the DNA synthesis inhibition caused by these mutants was occurring through inhibition of cdk kinases, the binding of in vitro translated deletion mutant proteins products with purified cdk2protein was examined. Thus, the various deletion mutants of SDI-1 were translated in reticulocyte lysates (Promega) using pBluescript based plasmids as transcription templates for the T7 RNA polymerase. For in vitro binding, 45 μl of the translation product was added to 500 μl binding buffer (50 mM Tris/HCl, pH 7.5, 120 mM NaCl, 2 mM EDTA, 0.1% NP-40, 1 mM NaF, 0.1 m.M sodium vanidate, 5 μg/ml leupeptin, 5 μg/ml soybean trypsin inhibitor, 5 μg/ml aprotinin) containing 1 ug cdk2 protein purified from a bacculovirus expression system. The mixture was gently rocked for 1 hour at 4° C. and then 7.5 μg anti-cdk2 rabbit polyclonal antibody was added. Mixing was continued for 1 hour at 4° C. The immunocomplex was absorbed by incubation with 40 μl protein G plus A beads for 2 hr. The matrices were then washed three times with 0.5 ml of binding buffer prior to electrophoresis and autoradiography.

Substance: SDI-1: senescent cell derived inhibitor of DNA synthesis, 164 amino acid protein, SEQ ID NO:2
- inhibition (antiproliferative effect) (A31 cells; A31 cells): 65-75%
- DNA Synthesis % LN (A31 cells; percentage of transfected cells with radiolabeled nuclei): 17%
- DNA Synthesis % Inhibition (A31 cells; proliferating A31 cells): 75%
- Relative Cell (% of Control) (Breast (T-47 D); 30 μg/ml): 2 ± 0 % of Control
- Relative Cell (% of Control) (Breast (T-47 D); 50 μg/ml): 2 ± 0 % of Control
- Relative Cell (% of Control) (Glial (U-251); 30 μg/ml): 66 ± 4 % of Control
- Relative Cell (% of Control) (Glial (U-251); 50 μg/ml): 35 ± 2 % of Control
- Relative Cell (% of Control) (Hepatocellular (Hep G2); 30 μg/ml): 21 ± 3 % of Control
- Relative Cell (% of Control) (Hepatocellular (Hep G2); 50 μg/ml): 12 ± 2 % of Control
- Relative Cell (% of Control) (Burkitt Lymphoma (Daudi)): 3 ± 0 % of Control
- Transcription (Normalized) % Activity (human cdc2 promoter; A31 cells (Table 17)): 52%
- Transcription (Normalized) % Inhibition (human cdc2 promoter; A31 cells (Table 17)): 48%
- % Activity (human cdc2 promoter; SDI-1 1.0 μg): 50%
- % Inhibition (human cdc2 promoter; SDI-1 1.0 μg): 50%
- Normalized CAT Activity (human cdc2 promoter; SDI-1 1.0 μg): 1664 counts per minute
- % Activity (human cdc2 promoter; SDI-1 2.0 μg): 60%
- % Inhibition (human cdc2 promoter; SDI-1 2.0 μg): 40%
- Normalized CAT Activity (human cdc2 promoter; SDI-1 2.0 μg): 2000 counts per minute
- % Activity (human cdc2 promoter; SDI-1 4.0 μg): 61%
- % Inhibition (human cdc2 promoter; SDI-1 4.0 μg): 39%
- Normalized CAT Activity (human cdc2 promoter; SDI-1 4.0 μg): 2008 counts per minute
- binding to purified cdk2 protein (cdk2 protein): bound cdk2 protein efficiently
